Assay results taken from PMC6429214, “Design, Synthesis and Biological Evaluation of Isoxazole-Based CK1 Inhibitors Modified with Chiral Pyrrolidine Scaffolds” (Molecules, 2019).

Tests used:
Experiment in all cases: 33PanQinase panel
Type in all cases: biochemical
[1] = biological target: T1, ROCK1 (Homo sapiens, UniProt Q13464); settings: ROCK1, 1 µM; read-out: Residual Activity (%)
T1 construct: purchased ProQinase
Method: (§1) Figure 5 Dendrogram representation of the selectivity profile of 29d at a concentration of 1 μM in a panel of 320 wild-type kinases (ProQinase, Freiburg, Germany). The residual kinase activity was determined compared to DMSO control. Images were generated using TREEspot Software Tool, DISCOVERX CORPORATION 2010.
(§2) Figure S1. X-ray crystal structure of intermediate compound 25d (ORTEP drawing with ellipsoids at 30% probability). CCDC 1589043 contains the supplementary crystallographic data for this paper. The data can be obtained free of charge from The Cambridge Crystallographic Data Centre via www.ccdc.cam.ac.uk/structures.
(§3) Table S1 Data collection, structure refinement and Ramachrandran plot results of protein crystallization of CK1δ in complex with compound 30a and 30b, respectively.
(§4) Root-mean-square deviations
(§5) Additionally allowed 2.6 2.2
(§6) Table S2. Selectivity profile of compound 29d. The inhibitor has been screened at a concentration of 1 µM over a panel of 320 wild-type protein kinases by ProQinase GmbH (Freiburg, Germany) using an activity-based radiometric 33PanQinase® assay. Results are presented as percentage of residual kinase activity relative to […]
(§7) control. The final DMSO concentration was 1 % in each reaction-mix. Classification of protein kinase families refers to Manning et al. (Manning, G.; Whyte, D. B.; Martinez, R.; Hunter, T.; Sudarsanam, S. The Protein Kinase Complement of the Human Genome. Science 2002, 298, 1912–1934): AGC = containing PKA, PKG, PKC families; […] = containing Cdk, MAPK, GSK3, CLK families; STE = homologs of yeast sterile 7, sterile 11, sterile 20 kinases; TK = tyrosine kinase; TKL = tyrosine kinase-like.
(§8) Kinase name Kinase family Residual Activity (%)

[2] = biological target: T2, MARK4 (Homo sapiens, UniProt Q96L34); settings: MARK4, 1 µM; read-out: Residual Activity (%)
T2 construct: purchased ProQinase
Method: as §1, §2, §3, §4, §5, §6, §7, §8

[3] = biological target: T3, AXL (Homo sapiens, UniProt P30530); settings: read-out: Residual Activity (%)
T3 construct: purchased ProQinase
Method: as §1, §2, §3, §4, §5, §6, §7, §8

[4] = biological target: T4, JAK2 (Homo sapiens, UniProt O60674); settings: JAK2, 1 µM; read-out: Residual Activity (%)
T4 construct: purchased ProQinase
Method: as §1, §2, §3, §4, §5, §6, §7, §8

[5] = biological target: T5, CAMK2G (Homo sapiens, UniProt Q13555); settings: read-out: Residual Activity (%)
T5 construct: purchased ProQinase
Method: as §1, §2, §3, §4, §5, §6, §7, §8

[6] = biological target: T6, CHK2 (Homo sapiens, UniProt O96017); settings: CHK2, 1 µM; read-out: Residual Activity (%)
T6 construct: purchased ProQinase
Method: as §1, §2, §3, §4, §5, §6, §7, §8

[7] = biological target: T7, NIK (Homo sapiens, UniProt Q99558); settings: read-out: Residual Activity (%)
T7 construct: purchased ProQinase
Method: as §1, §2, §3, §4, §5, §6, §7, §8

[8] = biological target: T8, MAP3K10 (Homo sapiens, UniProt Q02779); settings: MAP3K10, 1 µM; read-out: Residual Activity (%)
T8 construct: purchased ProQinase
Method: as §1, §2, §3, §4, §5, §6, §7, §8

[9] = biological target: T9, LYN (Homo sapiens, UniProt P07948); settings: read-out: Residual Activity (%)
T9 construct: purchased ProQinase
Method: as §1, §2, §3, §4, §5, §6, §7, §8

[10] = biological target: T10, RON (Homo sapiens, UniProt Q04912); settings: read-out: Residual Activity (%)
T10 construct: purchased ProQinase
Method: as §1, §2, §3, §4, §5, §6, §7, §8

[11] = biological target: T11, CAMK2B (Homo sapiens, UniProt Q13554); settings: read-out: Residual Activity (%)
T11 construct: purchased ProQinase
Method: as §1, §2, §3, §4, §5, §6, §7, §8

[12] = biological target: T12, PIM2 (Homo sapiens, UniProt Q9P1W9); settings: PIM2, 1 µM; read-out: Residual Activity (%)
T12 construct: purchased ProQinase
Method: as §1, §2, §3, §4, §5, §6, §7, §8

[13] = biological target: T13, DNA-PK (Homo sapiens, UniProt P78527); settings: read-out: Residual Activity (%)
T13 construct: purchased ProQinase
Method: as §1, §2, §3, §4, §5, §6, §7, §8

[14] = biological target: T14, MERTK (Homo sapiens, UniProt Q12866); settings: read-out: Residual Activity (%)
T14 construct: purchased ProQinase
Method: as §1, §2, §3, §4, §5, §6, §7, §8

[15] = biological target: T15, IRAK4 (untagged) (Homo sapiens, UniProt Q9NWZ3); settings: read-out: Residual Activity (%)
T15 construct: purchased ProQinase
Method: as §1, §2, §3, §4, §5, §6, §7, §8

[16] = biological target: T16, TLK1 (Homo sapiens, UniProt Q9UKI8); settings: TLK1, 1 µM; read-out: Residual Activity (%)
T16 construct: purchased ProQinase
Method: as §1, §2, §3, §4, §5, §6, §7, §8

[17] = biological target: T17, CDK3/CycE1 (Homo sapiens, UniProt Q00526); settings: CDK3/CycE1, 1 µM; read-out: Residual Activity (%)
T17 construct: purchased ProQinase
Method: as §1, §2, §3, §4, §5, §6, §7, §8

[18] = biological target: T18, MAP4K5 (Homo sapiens, UniProt Q9Y4K4); settings: MAP4K5, 1 µM; read-out: Residual Activity (%)
T18 construct: purchased ProQinase
Method: as §1, §2, §3, §4, §5, §6, §7, §8

[19] = biological target: T19, MELK (Homo sapiens, UniProt Q14680); settings: read-out: Residual Activity (%)
T19 construct: purchased ProQinase
Method: as §1, §2, §3, §4, §5, §6, §7, §8

[20] = biological target: T20, MKK7 (Homo sapiens, UniProt O14733); settings: MKK7, 1 µM; read-out: Residual Activity (%)
T20 construct: purchased ProQinase
Method: as §1, §2, §3, §4, §5, §6, §7, §8

[21] = biological target: T21, CK2-alpha2 (Homo sapiens, UniProt P19784); settings: CK2-alpha2, 1 µM; read-out: Residual Activity (%)
T21 construct: purchased ProQinase
Method: as §1, §2, §3, §4, §5, §6, §7, §8

[22] = biological target: T22, NEK2 (Homo sapiens, UniProt P51955); settings: NEK2, 1 µM; read-out: Residual Activity (%)
T22 construct: purchased ProQinase
Method: as §1, §2, §3, §4, §5, §6, §7, §8

[23] = biological target: T23, PASK (Homo sapiens, UniProt Q96RG2); settings: read-out: Residual Activity (%)
T23 construct: purchased ProQinase
Method: as §1, §2, §3, §4, §5, §6, §7, §8

[24] = biological target: T24, GRK3 (Homo sapiens, UniProt P35626); settings: GRK3, 1 µM; read-out: Residual Activity (%)
T24 construct: purchased ProQinase
Method: as §1, §2, §3, §4, §5, §6, §7, §8

[25] = biological target: T25, PKC-alpha (Homo sapiens, UniProt P17252); settings: read-out: Residual Activity (%)
T25 construct: purchased ProQinase
Method: as §1, §2, §3, §4, §5, §6, §7, §8

[26] = biological target: T26, ABL2 (Homo sapiens, UniProt P42684); settings: ABL2, 1 µM; read-out: Residual Activity (%)
T26 construct: purchased ProQinase
Method: as §1, §2, §3, §4, §5, §6, §7, §8

[27] = biological target: T27, CDK2/CycA2 (Homo sapiens, UniProt P24941); settings: CDK2/CycA2, 1 µM; read-out: Residual Activity (%)
T27 construct: purchased ProQinase
Method: as §1, §2, §3, §4, §5, §6, §7, §8

[28] = biological target: T28, STK33 (Homo sapiens, UniProt Q9BYT3); settings: STK33, 1 µM; read-out: Residual Activity (%)
T28 construct: purchased ProQinase
Method: as §1, §2, §3, §4, §5, §6, §7, §8

T2 sequence (Q96L34 whole entry): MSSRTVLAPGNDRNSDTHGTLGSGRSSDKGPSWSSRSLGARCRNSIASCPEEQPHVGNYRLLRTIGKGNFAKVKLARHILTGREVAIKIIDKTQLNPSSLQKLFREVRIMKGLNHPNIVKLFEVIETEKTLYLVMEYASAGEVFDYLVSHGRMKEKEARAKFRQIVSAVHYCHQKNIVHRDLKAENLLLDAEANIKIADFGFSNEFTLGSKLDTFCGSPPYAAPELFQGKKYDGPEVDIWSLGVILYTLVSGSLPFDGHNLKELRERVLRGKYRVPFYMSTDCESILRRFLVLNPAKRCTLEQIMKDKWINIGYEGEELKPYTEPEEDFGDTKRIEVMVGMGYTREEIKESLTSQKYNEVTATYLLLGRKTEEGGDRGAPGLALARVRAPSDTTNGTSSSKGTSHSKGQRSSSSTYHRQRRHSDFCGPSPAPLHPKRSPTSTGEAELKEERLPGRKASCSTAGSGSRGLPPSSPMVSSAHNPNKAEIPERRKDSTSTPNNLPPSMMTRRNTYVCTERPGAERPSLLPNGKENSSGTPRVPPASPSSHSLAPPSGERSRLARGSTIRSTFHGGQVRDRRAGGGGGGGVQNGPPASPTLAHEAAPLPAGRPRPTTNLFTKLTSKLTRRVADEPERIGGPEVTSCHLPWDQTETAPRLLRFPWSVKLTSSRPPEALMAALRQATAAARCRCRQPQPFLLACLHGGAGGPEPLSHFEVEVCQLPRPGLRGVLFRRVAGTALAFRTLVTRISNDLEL
T17 sequence (Q00526 whole entry): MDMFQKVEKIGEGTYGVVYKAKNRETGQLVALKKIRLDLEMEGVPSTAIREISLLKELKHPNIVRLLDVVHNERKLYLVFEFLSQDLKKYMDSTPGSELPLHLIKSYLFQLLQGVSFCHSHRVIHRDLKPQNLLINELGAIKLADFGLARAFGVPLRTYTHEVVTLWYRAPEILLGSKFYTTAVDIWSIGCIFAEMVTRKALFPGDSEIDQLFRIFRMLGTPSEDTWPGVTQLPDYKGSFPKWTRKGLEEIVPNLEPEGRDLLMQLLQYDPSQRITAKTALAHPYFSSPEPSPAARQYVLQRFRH
T17 sequence (P24864 whole entry partner): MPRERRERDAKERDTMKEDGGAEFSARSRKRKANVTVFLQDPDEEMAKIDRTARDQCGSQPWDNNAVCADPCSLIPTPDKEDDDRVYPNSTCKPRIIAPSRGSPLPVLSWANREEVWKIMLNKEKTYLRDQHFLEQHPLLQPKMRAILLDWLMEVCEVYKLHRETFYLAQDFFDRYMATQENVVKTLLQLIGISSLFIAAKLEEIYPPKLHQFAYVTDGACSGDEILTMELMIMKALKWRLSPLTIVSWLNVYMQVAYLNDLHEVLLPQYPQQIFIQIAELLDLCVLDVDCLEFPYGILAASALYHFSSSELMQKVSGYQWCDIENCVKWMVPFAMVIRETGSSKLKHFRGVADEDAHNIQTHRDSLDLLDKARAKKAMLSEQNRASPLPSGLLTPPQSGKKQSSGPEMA
T6 sequence (O96017 whole entry): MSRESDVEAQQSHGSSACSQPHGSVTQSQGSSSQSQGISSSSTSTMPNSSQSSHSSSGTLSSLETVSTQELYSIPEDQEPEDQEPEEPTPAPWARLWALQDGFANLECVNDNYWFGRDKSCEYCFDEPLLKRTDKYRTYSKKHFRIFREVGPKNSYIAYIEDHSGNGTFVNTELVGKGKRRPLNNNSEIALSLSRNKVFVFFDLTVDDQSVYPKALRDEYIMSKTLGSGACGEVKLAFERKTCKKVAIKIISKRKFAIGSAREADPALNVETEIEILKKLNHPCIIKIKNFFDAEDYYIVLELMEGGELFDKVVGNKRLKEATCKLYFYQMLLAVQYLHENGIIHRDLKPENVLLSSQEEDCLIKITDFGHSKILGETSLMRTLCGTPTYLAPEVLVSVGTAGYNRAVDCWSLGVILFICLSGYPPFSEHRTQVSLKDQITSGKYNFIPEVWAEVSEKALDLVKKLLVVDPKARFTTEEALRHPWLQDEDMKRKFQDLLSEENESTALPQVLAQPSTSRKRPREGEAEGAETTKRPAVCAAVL
T16 sequence (Q9UKI8 whole entry): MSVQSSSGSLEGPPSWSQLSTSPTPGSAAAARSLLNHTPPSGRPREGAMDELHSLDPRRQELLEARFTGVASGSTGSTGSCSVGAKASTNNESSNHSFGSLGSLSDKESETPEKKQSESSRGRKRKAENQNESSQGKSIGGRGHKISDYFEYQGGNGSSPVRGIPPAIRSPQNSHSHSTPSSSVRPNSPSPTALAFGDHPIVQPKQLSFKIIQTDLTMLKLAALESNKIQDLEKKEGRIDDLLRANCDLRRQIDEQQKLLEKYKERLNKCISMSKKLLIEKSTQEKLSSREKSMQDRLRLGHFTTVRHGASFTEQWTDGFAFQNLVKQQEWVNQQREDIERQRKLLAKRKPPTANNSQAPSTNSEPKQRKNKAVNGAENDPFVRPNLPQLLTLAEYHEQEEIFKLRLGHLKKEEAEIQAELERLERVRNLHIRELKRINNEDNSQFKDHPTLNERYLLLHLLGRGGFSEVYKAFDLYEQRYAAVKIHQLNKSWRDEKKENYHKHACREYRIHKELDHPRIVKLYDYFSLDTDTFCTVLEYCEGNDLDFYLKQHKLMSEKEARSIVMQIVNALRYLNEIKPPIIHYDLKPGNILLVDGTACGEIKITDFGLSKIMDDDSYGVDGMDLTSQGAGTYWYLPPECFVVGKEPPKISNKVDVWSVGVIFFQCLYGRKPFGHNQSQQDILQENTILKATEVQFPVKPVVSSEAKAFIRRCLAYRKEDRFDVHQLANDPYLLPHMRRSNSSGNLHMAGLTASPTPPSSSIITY
T19 sequence (Q14680 whole entry): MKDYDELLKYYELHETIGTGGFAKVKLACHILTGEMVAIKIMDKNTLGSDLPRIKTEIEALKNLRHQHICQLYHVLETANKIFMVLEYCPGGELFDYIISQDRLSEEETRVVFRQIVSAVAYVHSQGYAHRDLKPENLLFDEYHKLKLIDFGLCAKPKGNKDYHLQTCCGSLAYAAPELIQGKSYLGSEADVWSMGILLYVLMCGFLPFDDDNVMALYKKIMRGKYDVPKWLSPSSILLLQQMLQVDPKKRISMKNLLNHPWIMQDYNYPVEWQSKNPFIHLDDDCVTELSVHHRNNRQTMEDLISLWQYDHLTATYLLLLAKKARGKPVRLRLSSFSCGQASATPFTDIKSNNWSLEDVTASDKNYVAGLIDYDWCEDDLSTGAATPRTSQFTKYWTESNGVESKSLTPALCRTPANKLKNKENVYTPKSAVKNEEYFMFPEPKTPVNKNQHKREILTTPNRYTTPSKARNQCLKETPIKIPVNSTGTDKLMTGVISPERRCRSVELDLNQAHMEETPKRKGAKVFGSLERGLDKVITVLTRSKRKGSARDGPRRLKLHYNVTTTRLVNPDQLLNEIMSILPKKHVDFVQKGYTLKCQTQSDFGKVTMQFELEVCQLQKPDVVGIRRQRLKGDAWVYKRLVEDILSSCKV
T12 sequence (Q9P1W9 whole entry): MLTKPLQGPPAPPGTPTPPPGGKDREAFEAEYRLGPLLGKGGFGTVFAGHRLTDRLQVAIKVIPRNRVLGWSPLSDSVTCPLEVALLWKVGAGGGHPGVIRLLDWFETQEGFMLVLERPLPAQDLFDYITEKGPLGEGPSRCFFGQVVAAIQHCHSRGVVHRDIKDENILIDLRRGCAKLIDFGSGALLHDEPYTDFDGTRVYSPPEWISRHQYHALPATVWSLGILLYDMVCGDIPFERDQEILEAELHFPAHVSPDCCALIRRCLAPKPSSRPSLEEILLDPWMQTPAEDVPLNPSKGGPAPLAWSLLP
T15 sequence (Q9NWZ3 whole entry): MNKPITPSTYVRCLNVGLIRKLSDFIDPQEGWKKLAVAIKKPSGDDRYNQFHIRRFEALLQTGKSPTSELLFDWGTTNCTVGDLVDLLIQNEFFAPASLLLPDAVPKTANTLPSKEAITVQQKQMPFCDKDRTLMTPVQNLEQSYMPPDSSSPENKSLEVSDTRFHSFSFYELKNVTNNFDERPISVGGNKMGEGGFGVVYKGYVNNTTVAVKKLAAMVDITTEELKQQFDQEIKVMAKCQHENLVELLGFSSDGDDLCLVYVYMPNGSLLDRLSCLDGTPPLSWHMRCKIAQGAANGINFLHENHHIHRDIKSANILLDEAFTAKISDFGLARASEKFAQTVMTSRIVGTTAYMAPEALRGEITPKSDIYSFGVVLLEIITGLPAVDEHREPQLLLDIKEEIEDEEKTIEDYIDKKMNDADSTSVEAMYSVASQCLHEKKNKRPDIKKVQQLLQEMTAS
T28 sequence (Q9BYT3 whole entry): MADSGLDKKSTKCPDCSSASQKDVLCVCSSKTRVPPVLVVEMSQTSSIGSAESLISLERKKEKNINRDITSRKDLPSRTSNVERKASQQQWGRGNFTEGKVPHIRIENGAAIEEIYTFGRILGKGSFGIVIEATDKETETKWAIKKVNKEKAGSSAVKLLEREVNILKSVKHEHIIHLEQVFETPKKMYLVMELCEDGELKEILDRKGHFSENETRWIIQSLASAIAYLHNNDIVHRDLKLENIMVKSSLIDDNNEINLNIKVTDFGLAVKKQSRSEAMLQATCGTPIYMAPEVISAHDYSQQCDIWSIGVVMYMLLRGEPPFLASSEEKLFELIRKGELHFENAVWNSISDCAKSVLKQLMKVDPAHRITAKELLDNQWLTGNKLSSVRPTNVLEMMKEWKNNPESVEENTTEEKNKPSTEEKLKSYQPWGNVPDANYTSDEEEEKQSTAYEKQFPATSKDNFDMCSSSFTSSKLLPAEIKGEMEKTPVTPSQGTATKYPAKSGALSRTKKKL

## COc1ccc(-c2cc(C(=O)Nc3cc(-c4c(-c5ccc(F)cc5)noc4C(C)C)ccn3)n(CC3NCC(O)C3O)c2)cc1 (stereo not shown) [29d]
[1]
  remaining activity at 1 µM: 92%
[2]
  remaining activity at 1 µM: 112%
[3]
  remaining activity at 1 µM: 110%
[4]
  remaining activity at 1 µM: 80%
[5]
  remaining activity at 1 µM: 119%
[6]
  remaining activity at 1 µM: 97%
[7]
  remaining activity at 1 µM: 98%
[8]
  remaining activity at 1 µM: 120%
[9]
  remaining activity at 1 µM: 122%
[10]
  remaining activity at 1 µM: 115%
[11]
  remaining activity at 1 µM: 102%
[12]
  remaining activity at 1 µM: 84%
[13]
  remaining activity at 1 µM: 95%
[14]
  remaining activity at 1 µM: 76%
[15]
  remaining activity at 1 µM: 89%
[16]
  remaining activity at 1 µM: 77%
[17]
  remaining activity at 1 µM: 103%
[18]
  remaining activity at 1 µM: 96%
[19]
  remaining activity at 1 µM: 107%
[20]
  remaining activity at 1 µM: 95%
[21]
  remaining activity at 1 µM: 111%
[22]
  remaining activity at 1 µM: 89%
[23]
  remaining activity at 1 µM: 99%
[24]
  remaining activity at 1 µM: 109%
[25]
  remaining activity at 1 µM: 107%
[26]
  remaining activity at 1 µM: 110%
[27]
  remaining activity at 1 µM: 102%
[28]
  remaining activity at 1 µM: 84%
